Data on 2 molecules can be found in patent US6703372B1, “Macrolides” (Biochemie S.A., priority 1999, dated 2004).

SMILES strings stand for the structures. Like-named read-outs stand apart in the source and are kept apart here.

Data set [1] is described as follows: stability of the crystalline structure (X-ray powder diffraction pattern) under normal air humidity conditions. Format: physicochemical. To be noted: kept for several weeks under normal air humidity conditions. On the procedure: “Stable monohydrate” as used herein includes a compound of formula I in the form of a monohydrate which is crystalline and which maintains its crystalline structure for at least 24 hours, e.g. for several weeks, under normal, e.g. normal air humidity, conditions. The crystalline structure of azithromycin in the form of a monohydrate may be determined by its (known) X-ray powder diffraction pattern. The X-ray powder diffraction pattern and the IR spectrum of azithromycin in the form of a monohydrate obtained according to the following examples corresponding to that of known (unstable) azithromycin in the form of a monohydrate.

The conditions of data set [2]: normal air humidity conditions, within some hours, stated as known, cited from earlier work.

As for `CC[C@H]1OC(=O)[C@H](C)[C@@H](O[C@H]2C[C@@](C)(OC)[C@@H](O)[C@H](C)O2)[C@H](C)[C@@H](O[C@@H]2O[C@H](C)C[C@H](N(C)C)[C@H]2O)[C@](C)(O)C[C@@H](C)CN(C)[C@H](C)[C@@H](O)[C@]1(C)O` [9-deoxo-9a-aza-9a-methyl-9a-homoerythromycin A], in data set [1], the “crystallinity and X-ray powder diffraction pattern on storage” value is “maintains its crystallinity and its X-ray powder diffraction pattern”. In data set [2] (listed as azithromycin in the form of a monohydrate), the “stability of the crystal structure” value is given as “unstable”. As for `CC[C@H]1OC(=O)[C@H](C)[C@@H](O[C@H]2C[C@@](C)(OC)[C@@H](O)[C@H](C)O2)[C@H](C)[C@@H](O[C@@H]2O[C@H](C)C[C@H](N(C)C)[C@H]2O)[C@](C)(O)C[C@@H](C)CN(C)[C@H](C)[C@@H](O)[C@]1(C)O` [azithromycin in the form of a dihydrate, 9-deoxo-9a-aza-9a-methyl-9a-homoerythromycin A, reference compound], the “stability of the crystal structure” value in data set [2] was “not to break down within some hours”.
